According to ChEMBL document CHEMBL1145355, “From selective substrate analogue factor Xa inhibitors to dual inhibitors of thrombin and factor Xa. Part 3” (Bioorg Med Chem Lett, 2007):

Test system: not listed separately
Experiment: Bioavailability in rat at 5 mg/kg po
Assay type: ADME, organism-based
Conditions: in vivo

Compound | bioavailability
NCc1ccc(Cl)cc1CNC(=O)CNC(=O)[C@@H](CCc1cccc[n+]1[O-])NS(=O)(=O)Cc1ccccc1 | < 5%

Test system: Rattus norvegicus
Experiment: Clearance in bile of rat at 5 mg/kg po
Assay type: ADME, organism-based
Set-up: dose 5 mg/kg, route oral
Conditions: in vivo

Compound | CL_biliary
NCc1ccc(Cl)cc1CNC(=O)CNC(=O)[C@@H](CCc1cccc[n+]1[O-])NS(=O)(=O)Cc1ccccc1 | 75%

Test system: not listed separately
Experiment: % of dose in urine of rat at 5 mg/kg po
Assay type: ADME, organism-based
Set-up: dose 5 mg/kg, route oral
Conditions: read-out: Compound in urine

Compound | dose excreted
NCc1ccc(Cl)cc1CNC(=O)CNC(=O)[C@@H](CCc1cccc[n+]1[O-])NS(=O)(=O)Cc1ccccc1 | 15%

Test system: not listed separately
Experiment: Anticoagulant activity in human plasma by aPTT assay
Assay type: functional
Conditions: not given

Compound | IC200
CCOC(=O)CN[C@H](CCc1cccc[n+]1[O-])C(=O)N1CCC[C@H]1C(=O)NCc1cc(Cl)ccc1CN | 0.18 µM
CCOC(=O)CN[C@H](CCc1ccc(O)cc1)C(=O)N1CCC[C@H]1C(=O)NCc1cc(Cl)ccc1CN | 0.58 µM
CCCS(=O)(=O)NC(CCc1cccc[n+]1[O-])C(=O)NCC(=O)NCc1cc(Cl)ccc1CN (stereo unspecified) | 0.45 µM
NCc1ccc(Cl)cc1CNC(=O)CNC(=O)C(CCc1cccc[n+]1[O-])NS(=O)(=O)CC(=O)O (stereo unspecified) | 0.89 µM
NCc1ccc(Cl)cc1CNC(=O)CNC(=O)C(CCc1cccc[n+]1[O-])NC(=O)C(=O)O (stereo unspecified) | 1.85 µM
NCc1ccc(Cl)cc1CNC(=O)CNC(=O)C(CCc1cccc[n+]1[O-])NS(=O)(=O)Cc1ccc(CC(=O)O)cc1 (stereo unspecified) | 0.49 µM
NCc1ccc(Cl)cc1CNC(=O)[C@@H]1CCCN1C(=O)[C@@H](CCc1cccc[n+]1[O-])NS(=O)(=O)CC(=O)O | 0.15 µM
NCc1ccc(Cl)cc1CNC(=O)[C@@H]1CCCN1C(=O)[C@@H](CCc1cccc[n+]1[O-])NCC(=O)O | 0.32 µM
NCc1ccc(Cl)cc1CNC(=O)CNC(=O)[C@@H](CCc1cccc[n+]1[O-])NS(=O)(=O)Cc1ccccc1 | 0.16 µM

Target: Coagulation factor X (Homo sapiens, UniProt P00742)
Conditions: not given

Sequence of Coagulation factor X (P00742 41-179 limits assumed): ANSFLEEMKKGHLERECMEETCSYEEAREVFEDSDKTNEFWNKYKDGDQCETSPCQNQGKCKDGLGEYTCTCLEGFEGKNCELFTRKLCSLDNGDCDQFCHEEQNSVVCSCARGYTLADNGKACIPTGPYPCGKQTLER
Sequence of Coagulation factor X (P00742 235-488 limits assumed): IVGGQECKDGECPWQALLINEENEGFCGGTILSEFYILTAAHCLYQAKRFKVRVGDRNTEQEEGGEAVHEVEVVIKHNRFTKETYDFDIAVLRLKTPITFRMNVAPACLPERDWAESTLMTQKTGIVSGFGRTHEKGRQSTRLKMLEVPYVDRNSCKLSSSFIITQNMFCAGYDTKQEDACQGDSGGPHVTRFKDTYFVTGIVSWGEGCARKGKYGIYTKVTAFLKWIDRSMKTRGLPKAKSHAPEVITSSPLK

Compound | Ki
CCOC(=O)CN[C@H](CCc1cccc[n+]1[O-])C(=O)N1CCC[C@H]1C(=O)NCc1cc(Cl)ccc1CN | 0.0017 µM
CCOC(=O)CN[C@H](CCc1ccc(O)cc1)C(=O)N1CCC[C@H]1C(=O)NCc1cc(Cl)ccc1CN | 0.017 µM
NCc1ccc(Cl)cc1CNC(=O)CNC(=O)C(CCc1cccc[n+]1[O-])NC(=O)C(=O)O (stereo unspecified) | 0.0049 µM
NCc1ccc(Cl)cc1CNC(=O)[C@@H]1CCCN1C(=O)[C@@H](CCc1cccc[n+]1[O-])NCC(=O)O | 0.00094 µM

Target: Trypsin (Homo sapiens, UniProt P07477+P07478+P35030)
Experiment: Inhibition of trypsin
Assay type: protein assay
Conditions: not given

Compound | Ki
CCOC(=O)CN[C@H](CCc1cccc[n+]1[O-])C(=O)N1CCC[C@H]1C(=O)NCc1cc(Cl)ccc1CN | > 0.5 µM
CCOC(=O)CN[C@H](CCc1ccc(O)cc1)C(=O)N1CCC[C@H]1C(=O)NCc1cc(Cl)ccc1CN | > 0.5 µM
CCCS(=O)(=O)NC(CCc1cccc[n+]1[O-])C(=O)NCC(=O)NCc1cc(Cl)ccc1CN (stereo unspecified) | > 0.5 µM
NCc1ccc(Cl)cc1CNC(=O)CNC(=O)C(CCc1cccc[n+]1[O-])NS(=O)(=O)CC(=O)O (stereo unspecified) | > 0.5 µM
NCc1ccc(Cl)cc1CNC(=O)CNC(=O)C(CCc1cccc[n+]1[O-])NC(=O)C(=O)O (stereo unspecified) | > 0.5 µM
NCc1ccc(Cl)cc1CNC(=O)CNC(=O)C(CCc1cccc[n+]1[O-])NS(=O)(=O)Cc1ccc(CC(=O)O)cc1 (stereo unspecified) | > 0.5 µM
NCc1ccc(Cl)cc1CNC(=O)[C@@H]1CCCN1C(=O)[C@@H](CCc1cccc[n+]1[O-])NS(=O)(=O)CC(=O)O | 0.061 µM
NCc1ccc(Cl)cc1CNC(=O)[C@@H]1CCCN1C(=O)[C@@H](CCc1cccc[n+]1[O-])NCC(=O)O | > 0.5 µM
NCc1ccc(Cl)cc1CNC(=O)CNC(=O)[C@@H](CCc1cccc[n+]1[O-])NS(=O)(=O)Cc1ccccc1 | 6.5 µM

Test system: Plasma
Experiment: Anticoagulant activity in human plasma by PT assay
Assay type: functional
Conditions: not given

Compound | IC200
CCOC(=O)CN[C@H](CCc1ccc(O)cc1)C(=O)N1CCC[C@H]1C(=O)NCc1cc(Cl)ccc1CN | 0.85 µM
NCc1ccc(Cl)cc1CNC(=O)CNC(=O)C(CCc1cccc[n+]1[O-])NC(=O)C(=O)O (stereo unspecified) | 0.13 µM
NCc1ccc(Cl)cc1CNC(=O)CNC(=O)C(CCc1cccc[n+]1[O-])NS(=O)(=O)Cc1ccc(CC(=O)O)cc1 (stereo unspecified) | 0.29 µM

Test system: Plasma
Experiment: Anticoagulant activity in human plasma by TT assay
Assay type: functional
Conditions: not given

Compound | IC200
CCOC(=O)CN[C@H](CCc1cccc[n+]1[O-])C(=O)N1CCC[C@H]1C(=O)NCc1cc(Cl)ccc1CN | 0.1 µM
CCOC(=O)CN[C@H](CCc1ccc(O)cc1)C(=O)N1CCC[C@H]1C(=O)NCc1cc(Cl)ccc1CN | 0.23 µM
CCCS(=O)(=O)NC(CCc1cccc[n+]1[O-])C(=O)NCC(=O)NCc1cc(Cl)ccc1CN (stereo unspecified) | 6.5 µM
NCc1ccc(Cl)cc1CNC(=O)CNC(=O)C(CCc1cccc[n+]1[O-])NS(=O)(=O)CC(=O)O (stereo unspecified) | 57 µM
NCc1ccc(Cl)cc1CNC(=O)CNC(=O)C(CCc1cccc[n+]1[O-])NC(=O)C(=O)O (stereo unspecified) | 15 µM
NCc1ccc(Cl)cc1CNC(=O)CNC(=O)C(CCc1cccc[n+]1[O-])NS(=O)(=O)Cc1ccc(CC(=O)O)cc1 (stereo unspecified) | 1.2 µM
NCc1ccc(Cl)cc1CNC(=O)[C@@H]1CCCN1C(=O)[C@@H](CCc1cccc[n+]1[O-])NS(=O)(=O)CC(=O)O | 0.11 µM
NCc1ccc(Cl)cc1CNC(=O)[C@@H]1CCCN1C(=O)[C@@H](CCc1cccc[n+]1[O-])NCC(=O)O | 0.17 µM
NCc1ccc(Cl)cc1CNC(=O)CNC(=O)[C@@H](CCc1cccc[n+]1[O-])NS(=O)(=O)Cc1ccccc1 | 0.5 µM

Test system: not listed separately
Experiment: Permeability across Caco-2 cell membrane
Assay type: ADME, cell-based
Conditions: human

Compound | Papp
CCOC(=O)CN[C@H](CCc1ccc(O)cc1)C(=O)N1CCC[C@H]1C(=O)NCc1cc(Cl)ccc1CN | 8.9 ×10⁻⁶ cm/s

Target: Urokinase-type plasminogen activator (Homo sapiens, UniProt P00749)
Experiment: Inhibition of uPA
Conditions: not given

Compound | Ki
CCOC(=O)CN[C@H](CCc1cccc[n+]1[O-])C(=O)N1CCC[C@H]1C(=O)NCc1cc(Cl)ccc1CN | > 5 µM
CCOC(=O)CN[C@H](CCc1ccc(O)cc1)C(=O)N1CCC[C@H]1C(=O)NCc1cc(Cl)ccc1CN | > 5 µM
CCCS(=O)(=O)NC(CCc1cccc[n+]1[O-])C(=O)NCC(=O)NCc1cc(Cl)ccc1CN (stereo unspecified) | > 5 µM
NCc1ccc(Cl)cc1CNC(=O)CNC(=O)C(CCc1cccc[n+]1[O-])NS(=O)(=O)CC(=O)O (stereo unspecified) | > 5 µM
NCc1ccc(Cl)cc1CNC(=O)CNC(=O)C(CCc1cccc[n+]1[O-])NC(=O)C(=O)O (stereo unspecified) | > 5 µM
NCc1ccc(Cl)cc1CNC(=O)CNC(=O)C(CCc1cccc[n+]1[O-])NS(=O)(=O)Cc1ccc(CC(=O)O)cc1 (stereo unspecified) | > 5 µM
NCc1ccc(Cl)cc1CNC(=O)[C@@H]1CCCN1C(=O)[C@@H](CCc1cccc[n+]1[O-])NS(=O)(=O)CC(=O)O | > 5 µM
NCc1ccc(Cl)cc1CNC(=O)[C@@H]1CCCN1C(=O)[C@@H](CCc1cccc[n+]1[O-])NCC(=O)O | > 5 µM
NCc1ccc(Cl)cc1CNC(=O)CNC(=O)[C@@H](CCc1cccc[n+]1[O-])NS(=O)(=O)Cc1ccccc1 | 150 µM

Target: not listed separately
Experiment: Inhibition of Plasmin
Set-up: species or system Homo sapiens
Conditions: not given

Compound | Ki
CCOC(=O)CN[C@H](CCc1cccc[n+]1[O-])C(=O)N1CCC[C@H]1C(=O)NCc1cc(Cl)ccc1CN | > 5 µM
CCOC(=O)CN[C@H](CCc1ccc(O)cc1)C(=O)N1CCC[C@H]1C(=O)NCc1cc(Cl)ccc1CN | > 5 µM
CCCS(=O)(=O)NC(CCc1cccc[n+]1[O-])C(=O)NCC(=O)NCc1cc(Cl)ccc1CN (stereo unspecified) | > 5 µM
NCc1ccc(Cl)cc1CNC(=O)CNC(=O)C(CCc1cccc[n+]1[O-])NS(=O)(=O)CC(=O)O (stereo unspecified) | > 5 µM
NCc1ccc(Cl)cc1CNC(=O)CNC(=O)C(CCc1cccc[n+]1[O-])NC(=O)C(=O)O (stereo unspecified) | > 5 µM
NCc1ccc(Cl)cc1CNC(=O)CNC(=O)C(CCc1cccc[n+]1[O-])NS(=O)(=O)Cc1ccc(CC(=O)O)cc1 (stereo unspecified) | > 5 µM
NCc1ccc(Cl)cc1CNC(=O)[C@@H]1CCCN1C(=O)[C@@H](CCc1cccc[n+]1[O-])NS(=O)(=O)CC(=O)O | > 5 µM
NCc1ccc(Cl)cc1CNC(=O)[C@@H]1CCCN1C(=O)[C@@H](CCc1cccc[n+]1[O-])NCC(=O)O | > 5 µM
NCc1ccc(Cl)cc1CNC(=O)CNC(=O)[C@@H](CCc1cccc[n+]1[O-])NS(=O)(=O)Cc1ccccc1 | 930 µM

Target: Prothrombin (Homo sapiens, UniProt P00734)
Experiment: Inhibition of thrombin
Conditions: not given

Compound | Ki
CCOC(=O)CN[C@H](CCc1ccc(O)cc1)C(=O)N1CCC[C@H]1C(=O)NCc1cc(Cl)ccc1CN | 0.0036 µM
CCCS(=O)(=O)NC(CCc1cccc[n+]1[O-])C(=O)NCC(=O)NCc1cc(Cl)ccc1CN (stereo unspecified) | 2.7 µM
NCc1ccc(Cl)cc1CNC(=O)CNC(=O)C(CCc1cccc[n+]1[O-])NS(=O)(=O)CC(=O)O (stereo unspecified) | 8.3 µM
NCc1ccc(Cl)cc1CNC(=O)CNC(=O)C(CCc1cccc[n+]1[O-])NC(=O)C(=O)O (stereo unspecified) | 18 µM
NCc1ccc(Cl)cc1CNC(=O)CNC(=O)C(CCc1cccc[n+]1[O-])NS(=O)(=O)Cc1ccc(CC(=O)O)cc1 (stereo unspecified) | 0.93 µM
NCc1ccc(Cl)cc1CNC(=O)[C@@H]1CCCN1C(=O)[C@@H](CCc1cccc[n+]1[O-])NS(=O)(=O)CC(=O)O | 0.0077 µM
NCc1ccc(Cl)cc1CNC(=O)[C@@H]1CCCN1C(=O)[C@@H](CCc1cccc[n+]1[O-])NCC(=O)O | 0.0173 µM
NCc1ccc(Cl)cc1CNC(=O)CNC(=O)[C@@H](CCc1cccc[n+]1[O-])NS(=O)(=O)Cc1ccccc1 | 0.17 µM

Test system: not listed separately
Experiment: Half life in iv dosed rat
Assay type: ADME, organism-based
Conditions: in vivo

Compound | half-life
NCc1ccc(Cl)cc1CNC(=O)CNC(=O)C(CCc1cccc[n+]1[O-])NC(=O)C(=O)O (stereo unspecified) | 30 min
NCc1ccc(Cl)cc1CNC(=O)CNC(=O)[C@@H](CCc1cccc[n+]1[O-])NS(=O)(=O)Cc1ccccc1 | < 20 min
